Publication PMC6502434, “The arginine sensing and transport binding sites are distinct in the human pathogen Leishmania” (PLoS Neglected Tropical Diseases, 2019)

Target: T1, LdAAP3 (Leishmania donovani, UniProt Q86G79)
T1 construct: native transporter in intact mid-log promastigotes, not overexpressed; no construct
T1 sequence (Q86G79 1-480): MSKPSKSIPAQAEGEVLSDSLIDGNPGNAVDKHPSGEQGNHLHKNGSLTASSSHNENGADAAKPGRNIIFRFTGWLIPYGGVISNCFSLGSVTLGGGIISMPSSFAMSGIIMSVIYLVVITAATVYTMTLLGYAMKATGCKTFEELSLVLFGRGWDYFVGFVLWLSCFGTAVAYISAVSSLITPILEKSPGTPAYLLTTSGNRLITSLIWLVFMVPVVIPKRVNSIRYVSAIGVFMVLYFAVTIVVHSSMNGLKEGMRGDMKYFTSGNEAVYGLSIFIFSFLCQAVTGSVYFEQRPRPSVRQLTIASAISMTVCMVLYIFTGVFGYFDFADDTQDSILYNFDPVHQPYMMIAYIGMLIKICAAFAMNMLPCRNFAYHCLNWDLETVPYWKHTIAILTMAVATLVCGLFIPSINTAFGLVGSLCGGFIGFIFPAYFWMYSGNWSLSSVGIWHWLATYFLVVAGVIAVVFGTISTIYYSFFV
Test: inhibition of [3H]arginine uptake by intact promastigotes, rapid filtration
Assay type: cell-based
Conditions: read-out: Percent arginine transport inhibition
Source text: inhibition of [3H]arginine uptake by intact promastigotes, rapid filtration on LdAAP3

| SMILES | inhibition at 1000 µM [%] | also measured |
| --- | --- | --- |
| N=C(N)c1ccc(OCCCCCOc2ccc(C(=N)N)cc2)cc1 [compound 2, Pentamidine] |  | inhibition at 100 µM: 38% |
| CNC(=N)NCCC[C@H](N)C(=O)O [compound 3, N-Methyl L-Arginine Acetate] | 66 |  |
| N=C(N)NOCC[C@H](N)C(=O)O [compound 4, Canavanine] |  | inhibition at 500 µM: 40% |
| NC(=O)NCCC[C@H](N)C(=O)O [compound 9, L-citrulline] | 10 |  |
